From patent US20230145835A1, “Modulators of Alpha-4-beta-7 Integrin and MAdCAM” (48HD Biopharma Inc., priority 2021, published 2023)
Like-named read-outs stand apart in the source and are kept apart here. Numbered stars: 1 amine (or outer) side, 2 acyl side, 3 side chain; on linkers, the order of the positions; unused ones are H or OH. Bridge positions count the residues as written; N and C are the ends. Square brackets hold non-standard residues; d marks the D form. Peptide text beside a SMILES is read from it. X3 = O=C(/C=N/OCCCCCCOc1cc(C[*:2])cc(C[*:3])c1)[*:1]; X1 = O=C(C=NOCCCCCCOc1cc(C[*:2])cc(C[*:3])c1)[*:1]; dMet(O) = CS(=O)CC[C@@H](N)C(=O)O; tBuAla = CC(C)(C)C[C@H](N)C(=O)O; Met(O) = CS(=O)CC[C@H](N)C(=O)O; Cba = N[C@@H](CC1CCC1)C(=O)O; hSer = N[C@@H](CCO)C(=O)O; Nle = CCCC[C@H](N)C(=O)O

Molecular target: T1, rh-integrin α4β7/LPAM-1 (Homo sapiens, UniProt P13612+P26010)
T1 sequence (P13612 34-977 limits assumed): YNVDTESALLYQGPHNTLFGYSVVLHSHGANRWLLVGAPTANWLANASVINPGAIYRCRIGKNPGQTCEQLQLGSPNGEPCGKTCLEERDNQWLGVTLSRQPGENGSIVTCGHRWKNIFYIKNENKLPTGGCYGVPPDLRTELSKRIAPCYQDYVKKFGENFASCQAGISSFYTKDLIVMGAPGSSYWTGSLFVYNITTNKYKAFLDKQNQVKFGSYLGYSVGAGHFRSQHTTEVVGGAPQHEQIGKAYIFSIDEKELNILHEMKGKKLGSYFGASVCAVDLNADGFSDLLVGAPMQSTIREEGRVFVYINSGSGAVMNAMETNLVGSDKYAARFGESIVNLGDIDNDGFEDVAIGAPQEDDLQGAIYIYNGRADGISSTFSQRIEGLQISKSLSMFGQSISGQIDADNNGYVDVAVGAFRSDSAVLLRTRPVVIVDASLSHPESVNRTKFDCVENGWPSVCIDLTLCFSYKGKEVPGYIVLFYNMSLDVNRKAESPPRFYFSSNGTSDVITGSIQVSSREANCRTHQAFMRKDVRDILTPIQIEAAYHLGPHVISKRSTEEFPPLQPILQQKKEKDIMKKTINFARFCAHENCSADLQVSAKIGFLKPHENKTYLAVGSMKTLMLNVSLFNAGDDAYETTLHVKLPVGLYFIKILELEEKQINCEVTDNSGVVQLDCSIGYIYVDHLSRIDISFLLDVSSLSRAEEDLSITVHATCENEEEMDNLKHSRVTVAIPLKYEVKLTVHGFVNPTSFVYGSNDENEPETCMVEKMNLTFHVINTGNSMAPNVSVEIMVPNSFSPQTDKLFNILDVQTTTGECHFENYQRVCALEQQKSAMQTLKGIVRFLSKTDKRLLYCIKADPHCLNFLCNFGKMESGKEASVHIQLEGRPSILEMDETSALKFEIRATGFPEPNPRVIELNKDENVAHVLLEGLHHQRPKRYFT
T1 sequence (P26010 20-723 limits assumed): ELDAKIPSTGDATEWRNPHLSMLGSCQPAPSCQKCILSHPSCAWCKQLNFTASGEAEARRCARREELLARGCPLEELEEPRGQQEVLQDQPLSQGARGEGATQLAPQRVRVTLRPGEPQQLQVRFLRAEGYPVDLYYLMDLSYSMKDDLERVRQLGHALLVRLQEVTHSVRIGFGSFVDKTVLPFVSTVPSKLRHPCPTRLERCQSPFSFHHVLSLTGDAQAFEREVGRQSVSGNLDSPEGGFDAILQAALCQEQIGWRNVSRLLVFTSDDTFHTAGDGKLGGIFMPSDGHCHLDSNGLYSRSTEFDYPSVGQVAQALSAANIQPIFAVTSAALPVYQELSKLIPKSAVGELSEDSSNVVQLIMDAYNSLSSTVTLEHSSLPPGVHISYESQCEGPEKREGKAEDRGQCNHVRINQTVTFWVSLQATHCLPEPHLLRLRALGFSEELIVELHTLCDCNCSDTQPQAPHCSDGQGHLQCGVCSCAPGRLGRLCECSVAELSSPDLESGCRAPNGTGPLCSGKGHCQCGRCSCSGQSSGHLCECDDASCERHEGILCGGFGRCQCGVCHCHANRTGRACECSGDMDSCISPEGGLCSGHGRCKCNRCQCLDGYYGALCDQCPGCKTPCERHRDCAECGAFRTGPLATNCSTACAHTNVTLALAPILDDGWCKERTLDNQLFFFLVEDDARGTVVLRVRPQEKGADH
Test: α4β7-MadCAM Competition ELISA (Example 4)
Type: binding
Conditions: read-out: IC50
Method: After washing with wash buffer, 200 μL assay buffer was added to each well and incubated for one hour at 28° C. After another wash with wash buffer, 100 μL of a MAdCAM and peptide mixture in assay buffer was added to each well and incubated for one hour at 28° C., followed by washing with wash buffer.

[1] = Table 3 Representative compounds, inhibition of MAdCAM binding to coated α4β7
[2] = competition ELISA, 4 μg/mL α4β7 coated, MAdCAM and peptide mixture, 28° C.

Q: `CC(C)(C)C[C@@H]1NC(=O)[C@H](CC(=O)O)NC(=O)[C@H](CC2CCC2)NC(=O)[C@@H]2CCCN2C(=O)[C@@H]2CSCc3cc(cc(c3)OCCCCCCO/N=C/C(=O)N[C@@H](CCCNC(=N)N)C(=O)N2)CSC[C@@H](C(N)=O)NC(=O)[C@H](CCC(=O)O)NC(=O)[C@H](CCC(N)=O)NC(=O)[C@H](Cc2c[nH]c3ccccc23)NC1=O` [compound 56, TSL6-SRCP{CbA}D {tBuAla}WQEC] (RCP[Cba]D[tBuAla]WQEC-NH2; linker N-2-10 via X3) was tested. Which IC50 [1] did it give?
A: 3.89 µM

Q: `CCCC[C@@H]1NC(=O)[C@H](CO)NC(=O)[C@@H]2CSSC[C@@H](C(=O)N[C@@H](Cc3c[nH]c4ccccc34)C(=O)N[C@@H](CCC(N)=O)C(N)=O)NC(=O)[C@H](CC(C)C)NC(=O)[C@@H]([C@H](C)O)NC(=O)[C@H](CC(=O)O)NC(=O)[C@H](CO)NC(=O)[C@H](CCCNC(=N)N)NC(=O)[C@H](CSCC(=O)N[C@@H](CCCNC(=N)N)C(=O)N2)NC(=O)[C@H](CC(C)C)NC(=O)[C@H](CC(=O)O)NC1=O` [compound 76, Disulfide- RCS{Nle}DICRS DTLCWQ] ({CH2CO}-RCS[Nle]DLCRSD[dT]LCWQ-NH2; disulfide 2-13; thioether N-7) was tested. Which IC50 [1] did it give?
A: 34.3 µM

Q: With `C[C@@H]1NC(=O)C=NOCCCCCCOc2cc3cc(c2)CSC[C@H](NC1=O)C(=O)N[C@@H](Cc1ccc(O)cc1)C(=O)N1CCC[C@H]1C(=O)N[C@@H](CC(=O)O)C(=O)N[C@@H]([C@@H](C)O)C(=O)N[C@@H](Cc1ccc(O)cc1)C(=O)N[C@@H](Cc1c[nH]cn1)C(=O)N[C@H](C(=O)O)CSC3` [SEQ ID NO: 39] (ACYPDTYHC-OH; linker N-2-9 via X1) as the compound, how does the IC50 [2] read?
A: 111 µM

Q: `CSCC[C@@H]1NC(=O)/C=N/OCCCCCCOc2cc3cc(c2)CSC[C@H](NC1=O)C(=O)N1CCC[C@H]1C(=O)N[C@@H](CC(C)C)C(=O)N[C@@H](Cc1ccc(O)cc1)C(=O)N[C@@H](CCCCN)C(=O)N[C@@H](C(C)C)C(=O)N[C@@H](Cc1cnc[nH]1)C(=O)N[C@H](C(N)=O)CSC3` [compound 98, TSL6- SMCPLYKVHC] (MCPLYKVHC-NH2; linker N-2-9 via X3) was tested. Which IC50 [1] did it give?
A: 151 µM

Q: How did the IC50 [2] turn out when `CC[C@H](C)[C@@H]1NC(=O)[C@H](C)NC(=O)[C@H](CC[S+](C)[O-])NC(=O)[C@@H]2CCCN2C(=O)[C@@H]2CSCc3cc(cc(c3)OCCCCCCON=CC(=O)N[C@@H](CCC(N)=O)C(=O)N2)CSC[C@@H](C(=O)O)NC(=O)[C@H]([C@@H](C)O)NC(=O)[C@@H]2CCCN2C1=O` (stereo partly shown) [SEQ ID NO: 80] (QCP[Met(O)]AIPTC-OH; linker N-2-9 via X1) was run?
A: 152 µM

Q: With `CC[C@H](C)[C@@H]1NC(=O)[C@H](CC(=O)O)NC(=O)[C@H](CC(C)C)NC(=O)[C@H](CCCCN)NC(=O)[C@@H]2CSCc3cc(cc(c3)OCCCCCCON=CC(=O)N[C@@H](Cc3c[nH]cn3)C(=O)N2)CSC[C@@H](C(=O)O)NC(=O)[C@H](C(C)C)NC(=O)[C@H](Cc2c[nH]c3ccccc23)NC1=O` [SEQ ID NO: 73] (HCKLDIWVC-OH; linker N-2-9 via X1) as the compound, how does the IC50 [2] read?
A: > 500 µM

Q: `CSCC[C@@H]1NC(=O)[C@H](CC(=O)O)NC(=O)[C@H](CC(C)C)NC(=O)[C@@H]2CCCN2C(=O)[C@@H]2CSCc3cc(cc(c3)OCCCCCCO/N=C/C(=O)N[C@@H](CCCCN)C(=O)N2)CSC[C@@H](C(N)=O)NC(=O)[C@H](CCC(=O)O)NC(=O)[C@H](Cc2ccc(O)cc2)NC(=O)[C@@H]2CCCN2C1=O` [compound 29, TSL6- SKCPLDMPYEC] (KCPLDMPYEC-NH2; linker N-2-10 via X3) was tested. Which IC50 [1] did it give?
A: 0.672 µM

Q: Which IC50 [1] does the source give for `CC(C)C[C@@H]1NC(=O)/C=N/OCCCCCCOc2cc3cc(c2)CSC[C@H](NC1=O)C(=O)N[C@@H](Cc1ccc(O)cc1)C(=O)N[C@@H](CCC(=O)O)C(=O)N[C@@H](Cc1c[nH]c2ccccc12)C(=O)N[C@H](CCC(=O)O)C(=O)N[C@@H](Cc1cnc[nH]1)C(=O)N[C@@H](C)C(=O)N[C@H](C(N)=O)CSC3` [compound 63, TSL6- SLCYEWEHAC] (LCYEW[dE]HAC-NH2; linker N-2-9 via X3) here?
A: 7.95 µM

Q: `CC[C@H](C)[C@@H]1NC(=O)[C@H](C)NC(=O)[C@H](CC[S+](C)[O-])NC(=O)[C@@H]2CCCN2C(=O)[C@@H]2CSCc3cc(cc(c3)OCCCCCCO/N=C/C(=O)N[C@@H](CCC(N)=O)C(=O)N2)CSC[C@@H](C(N)=O)NC(=O)[C@H]([C@@H](C)O)NC(=O)[C@@H]2CCCN2C1=O` (stereo partly shown) [compound 99, TSL6-SQCP{Ox-Met} AIPTC] (QCP[Met(O)]AIPTC-NH2; linker N-2-9 via X3) was tested. Which IC50 [1] did it give?
A: 152 µM

Q: `C[C@@H](O)[C@@H]1NC(=O)[C@H](CC(=O)O)NC(=O)[C@@H]2CCCN2C(=O)[C@H](Cc2ccc(O)cc2)NC(=O)[C@@H]2CSCc3cc(cc(c3)OCCCCCCO/N=C/C(=O)N[C@@H](CC(=O)O)C(=O)N2)CSC[C@@H](C(N)=O)NC(=O)[C@H](Cc2cnc[nH]2)NC(=O)[C@H](Cc2ccc(O)cc2)NC1=O` [compound 88, TSL6- SDCYPDTYHC] (DCYPDTYHC-NH2; linker N-2-9 via X3) was tested. Which IC50 [1] did it give?
A: 72.5 µM

Q: `CSCC[C@@H]1NC(=O)[C@@H]2CCCN2C(=O)[C@@H]2CSCc3cc(cc(c3)OCCCCCCON=CC(=O)N[C@@H](C)C(=O)N2)CSC[C@@H](C(=O)O)NC(=O)[C@H](CCC(=O)O)NC(=O)CNC(=O)[C@H](C)NC(=O)[C@H](C(C)C)NC(=O)[C@H](CC(=O)O)NC1=O` [SEQ ID NO: 101] (ACPMDVAGEC-OH; linker N-2-10 via X1) was tested. Which IC50 [2] did it give?
A: 5.98 µM

Q: How did the IC50 [1] turn out when `CC[C@H](C)[C@@H]1NC(=O)[C@H](Cc2ccc(O)cc2)NC(=O)[C@H](CC(C)C)NC(=O)[C@@H]2CCCN2C(=O)[C@@H]2CSCc3cc(cc(c3)OCCCCCCO/N=C/C(=O)N[C@@H](CCSC)C(=O)N2)CSC[C@@H](C(N)=O)NC(=O)[C@H](Cc2cnc[nH]2)NC(=O)[C@H](C(C)C)NC1=O` [compound 72, TSL6- SMCPLYIVHC] (MCPLYIVHC-NH2; linker N-2-9 via X3) was run?
A: 29.4 µM

Q: `CC[C@H](C)[C@@H]1NC(=O)[C@H](CC(=O)O)NC(=O)[C@H](C)NC(=O)[C@@H]2CCCN2C(=O)[C@@H]2CSCc3cc(cc(c3)OCCCCCCO/N=C/C(=O)N[C@@H](CCC(N)=O)C(=O)N2)CSC[C@@H](C(N)=O)NC(=O)[C@H]([C@@H](C)O)NC(=O)[C@@H]2CCCN2C1=O` [compound 78, TSL6- SQCPADIPTC] (QCPADIPTC-NH2; linker N-2-9 via X3) was tested. Which IC50 [1] did it give?
A: 43.7 µM

Q: `C[C@@H]1NC(=O)[C@H](CC(=O)O)NC(=O)[C@@H](CC[S+](C)[O-])NC(=O)[C@@H]2CCCN2C(=O)[C@@H]2CSCc3cc(cc(c3)OCCCCCCO/N=C/C(=O)N[C@@H](CCC(N)=O)C(=O)N2)CSC[C@@H](C(N)=O)NC(=O)[C@H]([C@@H](C)O)NC(=O)[C@@H]2CCCN2C1=O` (stereo partly shown) [compound 67, TSL6-SQCP{Ox-Met}DAPTC] (QCP[dMet(O)]DAPTC-NH2; linker N-2-9 via X3) was tested. Which IC50 [1] did it give?
A: 15.7 µM

Q: Which IC50 [1] does the source give for `CC[C@H](C)[C@@H]1NC(=O)[C@H](CC(=O)O)NC(=O)[C@H](CCOC)NC(=O)[C@@H]2CCCN2C(=O)[C@@H]2CSCc3cc(cc(c3)OCCCCCCO/N=C/C(=O)N[C@@H](CCCNC(=N)N)C(=O)N2)CSC[C@@H](C(N)=O)NC(=O)[C@H](CCC(=O)O)NC(=O)[C@H](CCC(N)=O)NC(=O)[C@H](Cc2c[nH]c3ccccc23)NC1=O` [compound 14] (RCP[hSer](Me)DIWQEC-NH2; linker N-2-10 via X3) here?
A: 0.26 µM

Q: How did the IC50 [1] turn out when `CC(C)[C@@H]1NC(=O)[C@H](CCCCN)NC(=O)[C@@H]2CCCN2C(=O)[C@@H]2CCCN2C(=O)[C@H](CC(=O)O)NC(=O)[C@H](Cc2cnc[nH]2)NC(=O)[C@@H]2CSCc3cc(cc(c3)OCCCCCCO/N=C/C(=O)N[C@@H](CO)C(=O)N2)CSC[C@@H](C(N)=O)NC1=O` [compound 77, TSL6- SKCPADVPSC] (SCHDPPKVC-NH2; linker N-2-9 via X3) was run?
A: 41.1 µM
